How the values were obtained:
human SCD1 = human SCD1 (Homo sapiens (Human), UniProt O00767); experiment: Yeast growth assay, strain expressing human SCD1 as the sole desaturase (reduced growth as surrogate for SCD inhibition); format: cell-based; conditions: yeast with OLE1 deleted expressing human SCD1 from a plasmid; growth read as OD600 after 40 h at 30° C.; top drug concentration 33.3 μM
Method: (§1) Strains expressing SCD1 or SCD5 as the sole desaturase, the human SCD1 and SCD5 genes were used to evaluate inhibition of SCD1/SCD5 using reduced growth as a surrogate for SCD inhibition. These yeast strains express human SCD1 or SCD5 from a plasmid harbored in a strain in which the yeast OLE1 gene is deleted.
(§2) All compound profiling experiments were performed using the same basic protocol. Yeast were cultured using standard techniques in complete synthetic media lacking uracil and containing yeast nitrogen base supplemented with 2% (w/v) glucose (SD-Ura) Starter cultures were inoculated in 3 mL SD-Ura media containing 0.01% tween and 0.2 mM palmitoleic and oleic acid. Cultures were incubated overnight in a 30° C. shaker incubator (225 rpm). Saturated morning cultures were centrifuged, washed in SD-Ura media lacking TWEEN-20 and fatty acids, and then diluted 1:20 in fresh SD-Ura media also lacking TWEEN-20 and fatty acids.
(§3) Compound administration was performed in two separate steps. First, 15 μL of SD-Ura was dispensed into clear 384-well assay plates using a MULTIDROP™ Combi reagent dispenser. […] The cultures described above were centrifuged and washed with media lacking TWEEN-20 or oleic and palmitoleic acids.
(§4) After yeast delivery, assay plates were incubated under humidified conditions at 30° C. for 40 h. Yeast growth was monitored by reading the OD600 of each well using a microplate reader (Perkin Elmer EnVision™).

human SCD5 = human SCD5 (Homo sapiens (Human), UniProt Q86SK9); experiment: Yeast growth assay, strain expressing human SCD5 as the sole desaturase (reduced growth as surrogate for SCD inhibition); format: cell-based; conditions: yeast with OLE1 deleted expressing human SCD5 from a plasmid; growth read as OD600 after 40 h at 30° C.; top drug concentration 33.3 μM
Sequence of human SCD5 (Q86SK9 whole entry): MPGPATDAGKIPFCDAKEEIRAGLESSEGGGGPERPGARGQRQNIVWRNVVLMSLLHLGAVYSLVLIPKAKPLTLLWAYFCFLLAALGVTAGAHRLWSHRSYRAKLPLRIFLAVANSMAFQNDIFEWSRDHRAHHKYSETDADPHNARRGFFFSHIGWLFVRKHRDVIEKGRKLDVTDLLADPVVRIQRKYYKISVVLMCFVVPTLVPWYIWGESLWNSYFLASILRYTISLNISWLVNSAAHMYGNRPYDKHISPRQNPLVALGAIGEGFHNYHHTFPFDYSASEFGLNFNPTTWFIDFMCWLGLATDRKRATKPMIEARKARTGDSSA
Method: as §1, §2, §3, §4

Sequence of human SCD1 (O00767 whole entry): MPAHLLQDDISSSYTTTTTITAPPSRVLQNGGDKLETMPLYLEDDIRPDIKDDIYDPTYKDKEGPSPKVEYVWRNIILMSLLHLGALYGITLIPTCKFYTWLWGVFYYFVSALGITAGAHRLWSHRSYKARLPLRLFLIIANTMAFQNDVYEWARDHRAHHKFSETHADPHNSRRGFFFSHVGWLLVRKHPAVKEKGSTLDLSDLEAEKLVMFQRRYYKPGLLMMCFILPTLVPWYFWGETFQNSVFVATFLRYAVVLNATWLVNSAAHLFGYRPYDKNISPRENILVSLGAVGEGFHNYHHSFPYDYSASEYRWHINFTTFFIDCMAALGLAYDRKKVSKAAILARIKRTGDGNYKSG

Row | Molecule | IC50 (human SCD1) [µM] | IC50 (human SCD5) [µM]
1 | O=C(c1cnn(Cc2ccncc2)c1)c1cc(-c2ccccc2)on1 [Compound 138] | > 45 | > 45
2 | O=C(c1noc2c1CCCC2)N1CC(c2ccccc2)C1 [Compound 252, 3-(3-phenylazetidine-1-carbonyl)-4,5,6,7-tetrahydro-1,2-benzoxazole] | > 45 | 7.5
3 | O=C(Nc1cnn(Cc2cnccc2C(F)(F)F)c1)c1cc(-c2ccc3c(c2)OCO3)on1 [Compound 199, 5-(2H-1,3-benzodioxol-5-yl)-N-(1-{[4-(trifluoromethyl)pyridin-3-yl]methyl}-1H-pyrazol-4-yl)-1,2-oxazole-3-carboxamide] | > 45 | 
4 | N#Cc1ccc(C2CCCN2C(=O)c2cc(-c3ccc4c(c3)OCO4)on2)cc1 (centres unmarked) [Compound 395] | > 45 | 
5 | COc1ccc(C2CCCN2C(=O)c2cc(-c3ccc(OC(F)(F)F)cc3)on2)cc1 (centres unmarked) [Compound 380] | > 45 | 
6 | O=C(c1cc(-c2ccc3c(c2)OCO3)on1)N1CCN(c2ccccc2F)CC1 [Compound 277] | > 45 | 
7 | O=C(Nc1cnn(Cc2cccc(F)c2)c1)c1noc2c1CCCC2 [Compound 193, N-{1-[(3-fluorophenyl)methyl]-1H-pyrazol-4-yl}-4,5,6,7-tetrahydro-1,2-benzoxazole-3-carboxamide] | 0.01 | 
8 | O=C(Nc1cnn(Cc2ccccc2)c1)c1cc(N2CCCCC2)on1 [Compound 159, N-(1-benzyl-1H-pyrazol-4-yl)-5-(piperidin-1-yl)isoxazole-3-carboxamide] | 0.058 | 
9 | Cc1cnccc1-c1cc(C(=O)Nc2cnn(Cc3ccccc3)c2)no1 [Compound 201, N-(1-benzyl-1H-pyrazol-4-yl)-5-(3-methylpyridin-4-yl)isoxazole-3-carboxamide] | > 45 | 
10 | Cn1cc(-c2cc(C(=O)N3CCC[C@H]3c3ccccc3)no2)ccc1=O [Compound 429] | 36.3 | 
11 | N-(1-(3-fluorobenzyl)-1H-pyrazol-4-yl)-5-(pyrimidin-4-yl)isoxazole-3-carboxamide [Compound 90] | 1.1 | 
12 | O=C(c1cc(-c2ccc3c(c2)OCO3)on1)N1CCC[C@@H]1c1ccccc1 [Compound 358] | > 45 | 
13 | O=C(c1cc(-c2ccc3c(c2)OCO3)on1)N1CCCC1c1ccccc1 (centres unmarked) [Compound 354] | > 45 | 
14 | N#Cc1cccc(-c2cc(C(=O)N3CCC[C@H]3c3ccccc3)no2)c1 [Compound 403] | 31.1 | 
15 | O=C(c1cc(-c2ccc3c(c2)OCO3)on1)N1CCC[C@H]1c1ccccc1 [Compound 327] | 33.5 | 
16 | O=C(Nc1cnn(Cc2ccccc2)c1)c1cc(-c2ncccc2F)on1 [Compound 122] | 4.7 | 
17 | N#Cc1cccc(C2CCCN2C(=O)c2cc(-c3ccc4c(c3)OCO4)on2)c1 (centres unmarked) [Compound 396] | 38.9 | 
18 | O=C(Nc1cnn(Cc2cccc(F)c2)c1)c1cc(-c2cnco2)on1 [Compound 86, N-(1-(3-fluorobenzyl)-1H-pyrazol-4-yl)-5-(oxazol-5-yl)isoxazole-3-carboxamide] | 0.188 | 
19 | CNC(=O)c1ccc(-c2cc(C(=O)N3CCC(c4ccccc4)CC3)no2)cc1 [Compound 304, N-methyl-4-[3-(4-phenylpiperidine-1-carbonyl)isoxazol-5-yl]benzamide] | 0.38 | 
20 | Cn1c(=O)oc2ccc(-c3cc(C(=O)N4CCC[C@H]4c4ccccc4)no3)cc21 [Compound 444] | > 45 | 
21 | O=C(Nc1cnn(Cc2cnccc2C(F)(F)F)c1)c1cc(-c2ccccn2)on1 [Compound 197, 5-(pyridin-2-yl)-N-(1-{[4-(trifluoromethyl)pyridin-3-yl]methyl}-1H-pyrazol-4-yl)-1,2-oxazole-3-carboxamide] | > 45 | 
22 | O=C(Nc1cnn(Cc2cnccc2C(F)(F)F)c1)c1cc(-c2ccco2)on1 [Compound 198, 5-(furan-2-yl)-N-(1-{[4-(trifluoromethyl)pyridin-3-yl]methyl}-1H-pyrazol-4-yl)-1,2-oxazole-3-carboxamide] | > 45 | 
23 | O=C(NC1CCN(c2ccccc2)C1)c1cc(-c2ccco2)on1 (centres unmarked) [Compound 343] | > 45 | 
24 | O=C(c1cc(-c2ccccc2)on1)N1CCC(c2ccccc2C(F)(F)F)CC1 [Compound 289, (5-phenylisoxazol-3-yl)-[4-[2-(trifluoromethyl)phenyl]-1-piperidyl]methanone] | > 45 | 
25 | O=C(c1cc(-c2ccc3c(c2)OCO3)on1)N1CCCC1c1cc(Br)no1 (centres unmarked) [Compound 412] | > 45 | 
26 | COc1ccccc1C1CCCN1C(=O)c1cc(-c2ccc3c(c2)OCO3)on1 (centres unmarked) [Compound 364] | > 45 | 
27 | O=C(c1cc(-c2ccc3c(c2)OCO3)on1)N1CCCC1c1ncco1 (centres unmarked) [Compound 423] | > 45 | 

Row | Molecule | IC50 (human SCD1) [µM] | IC50 (human SCD5) [µM]
28 | O=C(c1cc(-c2ccc3c(c2)OCO3)on1)N1CC2(CC(c3ccccc3)C2)C1 [Compound 228] | 37.1 | 
29 | O=C(c1cc(-c2ccccc2)on1)N1CCC[C@@H]1c1ccccc1 [Compound 385] | > 45 | 
30 | COc1ccc(C2CCCN2C(=O)c2cc(-c3ccc4c(c3)OC(F)(F)O4)on2)cc1 (centres unmarked) [Compound 393] | > 45 | 
31 | C=C(C)c1cc(C(=O)Nc2cnn(Cc3cccc(F)c3)c2)no1 [Compound 58, N-(1-(3-fluorobenzyl)-1H-pyrazol-4-yl)-5-(prop-1-en-2-yl)isoxazole-3-carboxamide] | 0.02 | 
32 | O=C(c1cc(-c2ccc3c(c2)OCO3)on1)N1CCOCC1c1ccccc1 (centres unmarked) [Compound 397] | > 45 | 
33 | O=C(c1cc(-c2ccc3c(c2)OCO3)on1)N1CCC(c2cccc(F)c2)CC1 [Compound 309, [5-(1,3-benzodioxol-5-yl)isoxazol-3-yl]-[4-(3-fluorophenyl)-1-piperidyl]methanone] | > 45 | 
34 | COc1cccc(F)c1C1CCCN1C(=O)c1cc(-c2ccc3c(c2)OCO3)on1 (centres unmarked) [Compound 453] | > 45 | 
35 | O=C(c1cc(-c2ccccn2)on1)N1CCC(c2ccccc2)C1 (centres unmarked) [Compound 351] | > 45 | 
36 | N#Cc1ccc(-c2cc(C(=O)N3CCC(c4ccccc4)CC3)no2)c(F)c1 [Compound 325, 3-fluoro-4-(3-(4-phenylpiperidine-1-carbonyl)isoxazol-5-yl)benzonitrile] | 0.16 | 
37 | O=C(Nc1cnn(Cc2ccccc2)c1)c1cc(N2CCCC2)on1 [Compound 178, N-(1-benzyl-1H-pyrazol-4-yl)-5-(pyrrolidin-1-yl)isoxazole-3-carboxamide] | 0.01 | 
38 | O=C(c1cc(-c2ccc3c(c2)OCO3)on1)N1C[C@@H](F)C[C@H]1c1ccccc1 [Compound 427] | 30 | 
39 | O=C(Nc1cnn(Cc2cccc(Cl)c2)c1)c1cc(-c2ccco2)on1 [Compound 22, N-[1-[(3-chlorophenyl)methyl]pyrazol-4-yl]-5-(2-furyl)isoxazole-3-carboxamide] | > 45 | 
40 | CO[C@@H]1CCN(c2cc(C(=O)Nc3cnn(Cc4ccccc4)c3)no2)C1 [Compound 188, (R)—N-(1-benzyl-1H-pyrazol-4-yl)-5-(3-methoxypyrrolidin-1-yl)isoxazole-3-carboxamide] | 0.074 | 
41 | CC(C)(C)OC(=O)N1CCN(c2cc(C(=O)Nc3cnn(Cc4ccccc4)c3)no2)CC1 [Compound 185, tert-butyl 4-(3-(1-benzyl-1H-pyrazol-4-ylcarbamoyl)isoxazol-5-yl)piperazine-1-carboxylate] | 0.012 | 
42 | O=C(c1cc(-c2ccco2)on1)N1CC2(CCC2)C1 [Compound 246] | > 45 | 
43 | COc1ccc(C2CCCN2C(=O)c2cc(-c3cccc(OC)c3)on2)cc1 (centres unmarked) [Compound 375] | > 45 | 
44 | O=C(Nc1cnn(Cc2ccc(F)cc2)c1)c1cc(-c2ccco2)on1 [Compound 18, N-[1-[(4-fluorophenyl)methyl]pyrazol-4-yl]-5-(2-furyl)isoxazole-3-carboxamide] | > 45 | 
45 | O=C(c1cc(-c2ccc3c(c2)OCO3)on1)N1CCCC1C1CC1 (centres unmarked) [Compound 407] | > 45 | 
46 | COc1ccc(C2CCCN2C(=O)c2cc(-c3ccc(F)c(OC)c3)on2)cc1 (centres unmarked) [Compound 383] | 36.6 | 
47 | O=C(c1cc(-c2ccccc2)on1)N1CC=C(c2cc(F)ccc2Cl)CC1 [Compound 305] | 4.8 | 
48 | COC1(c2cc(C(=O)Nc3cnn(Cc4cccc(F)c4)c3)no2)CCC1 [Compound 115, N-(1-(3-fluorobenzyl)-1H-pyrazol-4-yl)-5-(1-methoxycyclobutyl)isoxazole-3-carboxamide] | 0.34 | 
49 | Cc1nn(C)c2cc(-c3cc(C(=O)N4COCC4c4ccccc4)no3)ccc12 (centres unmarked) [Compound 419] | > 45 | 
50 | COC1CCN(c2cc(C(=O)N3CC(c4ccccc4)C3)no2)CC1 [Compound 249] | > 45 | 
51 | O=C(c1cc(-c2ccccc2)on1)N1CCCC1c1ccccc1 (centres unmarked) [Compound 387] | > 45 | 
52 | O=C(Nc1cnn(Cc2ccccc2)c1)c1cc(-c2ccccc2F)on1 [Compound 38, N-(1-benzylpyrazol-4-yl)-5-(2-fluorophenyl)isoxazole-3-carboxamide] | > 45 | 
53 | O=C(c1cc(-c2ccc3c(c2)OCO3)on1)N1CCCc2cccc(F)c21 [Compound 264] | > 45 | 
54 | O=C(Nc1cnn(Cc2cccc(F)c2)c1)c1cc(N2CCCCC2)on1 [Compound 102, N-(1-(3-fluorobenzyl)-1H-pyrazol-4-yl)-5-(piperidin-1-yl)isoxazole-3-carboxamide] | 0.036 | 
